In brackets after ≈: the same amount, converted by molar mass. Positions of bridges follow the written chain, without caps; N, C: chain ends. Non-standard residues stand in square brackets, D forms with d. Residues, ends and D or L forms follow the SMILES beside them. Dab = NCC[C@H](N)C(=O)O Bounds are passed on as bounds.

The test system of one assay is E. coli ATCC 25922. Put plainly: microbe, parasite or virus in culture. The following applies: for MIC: Escherichia coli, ATCC25922, read-out: MIC, single drug. As for the experimental part: (§1) The MIC for ampicillin or gentamicin against each isolate was determined for each test to serve as an internal quality control. The MICs of isolates were determined by visual reading and using an EnSpire Multimode Plate Reader 2300 atA600nm.
(§2) Briefly, antimicrobial stock solutions for robenidine and PMBN were prepared at a concentration of 12.8 mg/ml in DMSO. […] A 1 μl aliquot of the first compound from each combination was dispensed along the abscissa (from row A to G) of the 96-well microplate, while the second compound was dispensed along the ordinate (from column 12 to column 3) using an electronic multichannel pipette followed by 89 μl of LB broth. Each well of the plate was inoculated with an aliquot of 10 μl bacterial suspension at a concentration of 1-5 × 10^6 colony forming units (CFU) per ml. Subsequently, the plate was incubated at 37°C for 24 h. The fractional inhibitory concentration index (FICI) described the results of the combinations, and was calculated utilizing the following formula:
(§3) DRI = MIC of drug alone/MIC of drug in combination

The subject of another assay is P. aeruginosa ATCC 27853. Put plainly: microbe, parasite or virus in culture. Conditions: for MIC: Pseudomonas aeruginosa, ATCC27853, read-out: MIC, single drug. As for the experimental part:
as §1, §2, §3

Assay [1] deals with P. aeruginosa (n = 30) clinical isolates from otitis externa cases in dogs. Put plainly: MIC/MBC and checkerboard, canine otitis externa isolates. It is filed as cell-based, Pseudomonas aeruginosa. Conditions: canine otitis externa; for MIC50 / MIC90: Pseudomonas aeruginosa; for MIC50: read-out: MIC50, single drug; for MIC90: read-out: MIC90, single drug.
Text: (§4) Escherichia coli ATCC 25922, E. coli ATCC 11229, P. aeruginosa ATCC 27853, P. aeruginosa PA01, Pseudomonas putida ATCC 17428, P. mirabilis ATCC 43071, K. pneumoniae ATCC 13883, A. baumannii ATCC 19606, and A. baumannii ATCC 12457 were used for preliminary susceptibility testing and combination experiments. S. aureus ATCC 29213 and S. pneumoniae ATCC 49619 were used as internal quality controls. A variety of bacterial organisms from both human and canine infections were investigated in this study (n = 119 isolates in total). Twenty-eight clinical Acinetobacter spp. isolates were obtained from cases of human skin and soft tissue infections, including 18 Acinetobacter baumannii and 10 A. calcoaceticus, kindly provided by a person (Institute of Medical and Veterinary Science, South Australia). […] Ninety-one clinical isolates were obtained from cases of canine otitis externa, including seven methicillin-susceptible S. pseudintermedius (MSSP), 13 multidrug- and methicillin-resistant S. pseudintermedius (MRSP) ([Saputra et al., 2017]), 20 beta-haemolytic Streptococcus spp., 30 P. aeruginosa (10 of them resistant to gentamicin and 21 P. mirabilis isolates). These isolates were obtained from the bacterial collection of the national survey of antimicrobial resistance in animals conducted in Australia. Swab samples from dogs with signs of otitis externa were collected by veterinarians and submitted to government, private or university diagnostic laboratories throughout Australia. After routine bacterial identification and the removal of confidential information, the participating veterinary diagnostic laboratories submitted the bacteria and their clinical information to PC2 Laboratories, Australian Centre for Antimicrobial Resistance Ecology, School of Animal and Veterinary Sciences, University of Adelaide, Roseworthy Campus, Roseworthy, SA, Australia, for further study. Thus, animal ethics approval was not required in this study. These organisms were identified to species level using biochemical testing and MALDI-TOF mass spectrometry (Bruker, Preston, VIC, Australia).
as §1
(§5) Briefly, 10 μl aliquots from each duplicate well from the MIC assays (starting from the MIC for each compound) were inoculated onto a sheep blood agar (SBA) plate and incubated at 37°C.
as §2, §3

Assay [2] has as its system P. mirabilis (n = 21) clinical isolates from otitis externa cases in dogs. Described as above. Type of assay: cell-based, Proteus mirabilis. The following applies: canine otitis externa; for MIC50 / MIC90: Proteus mirabilis; for MIC50: read-out: MIC50, single drug; for MIC90: read-out: MIC90, single drug.
Text: as §4, §1, §5, §2, §3

The subject of assay [3] is S. pseudintermedius (n = 20) clinical isolates from otitis externa cases in dogs. The description is as above. Type of assay: cell-based, Staphylococcus pseudintermedius. The following applies: canine otitis externa; for MIC50 / MIC90: Staphylococcus pseudintermedius; for MIC50: read-out: MIC50, single drug; for MIC90: read-out: MIC90, single drug.
Text: as §4, §1, §5, §2, §3

The subject of assay [4] is Beta-haemolytic streptococci (n = 20) clinical isolates from otitis externa cases in dogs. Described as above. It is filed as cell-based, beta-haemolytic Streptococcus spp. Conditions: canine otitis externa; for MIC50 / MIC90: Streptococcus; for MIC50: read-out: MIC50, single drug; for MIC90: read-out: MIC90, single drug.
Text: as §4, §1, §5, §2, §3

Another assay deals with S. aureus ATCC 29213. Put plainly: MIC broth microdilution, quality control strain. Conditions: Staphylococcus aureus, ATCC29213; S. aureus ATCC 29213, quality control strain. It is filed as cell-based. As for the experimental part:
(§6) Luria Bertani (LB) broth (Oxoid, Australia) was applied for MIC testing in lieu of cation-adjusted Mueller–Hinton broth as robenidine has been previously shown to chelate calcium ions. Furthermore, a twofold serial dilution of robenidine was performed in 100% DMSO, with 1 μl dispensed to each well due to the hydrophobicity of the compound ([Abraham et al., 2016]). The MIC for ampicillin or gentamicin against each isolate was determined for each test to serve as an internal quality control. The MICs of isolates were determined by visual reading and using an EnSpire Multimode Plate Reader 2300 atA600nm.
A general note: Broth dilution looks for growth in wells or tubes with falling amounts of substance.

The test system of another assay is S. pneumoniae ATCC 49619. Put plainly: MIC broth microdilution, quality control strain. It is filed as cell-based. Conditions: Streptococcus pneumoniae, ATCC49619; S. pneumoniae ATCC 49619, quality control strain. Here is the method:
as §6

Another assay deals with A. baumannii ATCC 12457. Put plainly: microbe, parasite or virus in culture. As for the experimental part:
as §1, §2, §3

A further assay has as its system A. baumannii ATCC 19606. Put plainly: microbe, parasite or virus in culture. Here is the method:
as §1, §2, §3

The test system of assay [5] is A. calcoaceticus (human clinical isolate). Put plainly: microbe, parasite or virus in culture. Here is the method:
as §1, §2, §3

The subject of the next assay is E. coli ATCC 11229. Put plainly: microbe, parasite or virus in culture. As for the experimental part:
as §1, §2, §3

In another assay the test system is K. pneumoniae ATCC 13883. Put plainly: microbe, parasite or virus in culture. Here is the method:
as §1, §2, §3

Another assay has as its system P. mirabilis ATCC 43071. Put plainly: microbe, parasite or virus in culture. Conditions: ATCC 43071, 24 h. Here is the method:
as §1, §2, §3

The next assay has as its system P. putida ATCC 17428. Put plainly: microbe, parasite or virus in culture. As for the experimental part: as §1, §2, §3
The subject of assay [6] is Gram-negative control strains. Put plainly: Checkerboard, summary over Gram-negative strains. It is filed as cell-based. Conditions: in combination with robenidine; for P. aeruginosa. As for the experimental part: as §2, §3
The subject of assay [7] is all the cell lines tested (HaCaT, HEK 293, MDCK). Put plainly: cells. Conditions: 24 h. As for the experimental part: Cells were maintained in Dulbecco’s modified Eagle’s medium (DMEM) with 10% fetal bovine serum (FBS) and 1% PenStrep (100 U/mL Penicillin and 100 μg/mL Streptomycin) at 37°C with 5% CO2. Cells were serially passaged at ∼80% confluence ∼ every 4 days. Assays were performed in duplicate in 96 well plates seeded with ∼25,000 cells per well. […] Briefly, the antimicrobials were prepared by performing a twofold serial dilution at 100× of tested concentration in DMSO. Subsequently, a 1 μl aliquot of each concentration was transferred to a sterile 96-well plate containing fresh DMEM with either 10% FBS. After mixing four times, the media aliquots with different concentrations of antimicrobial were transferred to each well of the 96-well plate seeded with cells, using wells containing 1–2% DMSO only as control. To determine the effect of FBS on the cytotoxicity of each compound, DMEM with 40% FBS containing different concentrations of antimicrobial was prepared as described above. After 24 h of exposure, WST-1 reagent (Cell Proliferation Assay reagent, Roche) at a concentration of 10% was added to each well. Absorbance at A450 nm on a Multiskan Ascent 354 Spectrophotometer (Labsystems) was measured after 1 h of incubation. The IC50 value was determined for each compound against each cell line via non-linear regression (three parameters) using GraphPad Prism v6 software.

Usually MIC50 stands for an inhibitory concentration at the 50% level, which refers to growth in some studies and to a panel of isolates in others. In general, MIC90 refers to an inhibitory concentration at the 90% level, which refers to growth in some studies and to a panel of isolates in others. `CN[C@@H]1[C@@H](O[C@H]2O[C@H](CO)[C@@H](N)[C@H](O)[C@H]2O)OC2C[C@@H](N)[C@@H](O[C@H]3[C@H](O)[C@@H](O)[C@H](N)C[C@@H]3N)OC2[C@@H]1O` (stereo partly drawn) [Apramycin, apramycin]: the figures for the MIC with E. coli ATCC 25922, with P. aeruginosa ATCC 27853 and in the assay on S. aureus ATCC 29213 were 8 µg/mL, 16 µg/mL and 4 µg/mL (≈ 7.41 µM), respectively. The MIC50 worked out at 32 µg/mL in assay [1], 32 µg/mL in assay [2], 8 µg/mL in assay [3] and 64 µg/mL in assay [4]. Besides, the MIC90 stood at 64 µg/mL in [1], 64 µg/mL in [2], 16 µg/mL in [3] and 128 µg/mL in [4]. In addition, the “MIC range, single drug” value in [1] was in the range of 16 to 64 µg/mL; in [2] it was 16 to 64 µg/mL; in assay [3] it was 1 to 16 µg/mL; in [4], 4 to 128 µg/mL.

As for `CC1(C)S[C@@H]2[C@H](NC(=O)[C@H](N)c3ccccc3)C(=O)N2[C@H]1C(=O)O` [Ampicillin, ampicillin], the MIC in the assay on E. coli ATCC 25922 worked out at 4 µg/mL; in the assay on S. aureus ATCC 29213, 1 µg/mL (≈ 2.86 µM); in the assay with S. pneumoniae ATCC 49619 it was 0.125 µg/mL (≈ 0.358 µM). The MIC50 in assay [3] and in assay [4] was 0.125 µg/mL in each case. For the same molecule, the figures for the MIC90 in assay [3] and in assay [4] were 8 µg/mL and 0.25 µg/mL, respectively. Besides, the entries for the “MIC range, single drug” value in [3] and in assay [4] were 0.03 to 32 µg/mL and 0.06 to 0.5 µg/mL, respectively.

The term IC50 denotes the concentration at which inhibition is half-maximal. As for `CC(C)C[C@@H]1NC(=O)[C@@H](Cc2ccccc2)NC(=O)[C@H](CCN)NC(=O)[C@@H](NC(=O)[C@H](CCN)NC(=O)[C@@H](N)[C@@H](C)O)CCNC(=O)[C@H]([C@@H](C)O)NC(=O)[C@H](CCN)NC(=O)[C@H](CCN)NC1=O` [PMBN, polymyxin B nonapeptide] (H-T[Dab][Dab][Dab][dF]L[Dab][Dab]T; lactam 3-C; N-terminus assumed), the “MIC in combination PMBN:ROB” value is 1 µg/mL with A. baumannii ATCC 12457 (A. baumannii ATCC 12457, concentration of the labelled component); 1 µg/mL with A. baumannii ATCC 19606 (A. baumannii ATCC 19606, concentration of the labelled component); 1.5 µg/mL in assay [5] (A. calcoaceticus human clinical isolate, concentration of the labelled component); 6 µg/mL in the assay with E. coli ATCC 11229 (E. coli ATCC 11229, concentration of the labelled component); 6 µg/mL in the assay with E. coli ATCC 25922 (E. coli ATCC 25922, concentration of the labelled component); 0.5 µg/mL in the assay on K. pneumoniae ATCC 13883 (K. pneumoniae ATCC 13883, concentration of the labelled component). The “MIC in combination PMBN:ROB” value was 0.75 µg/mL with P. aeruginosa ATCC 27853 (P. aeruginosa ATCC 27853, concentration of the labelled component) and 1:1 μg/ml in the assay with P. putida ATCC 17428 (P. putida ATCC 17428, concentration of the labelled component). The “MIC, single drug” value in the assay with A. baumannii ATCC 12457 (ATCC 12457, 24 h) is over 32 µg/mL; in the assay on A. baumannii ATCC 19606 (ATCC 19606, 24 h), over 32 µg/mL; in assay [5] (24 h) it was over 32 µg/mL; with E. coli ATCC 11229 (ATCC 11229, 24 h) it was over 32 µg/mL; in the assay with E. coli ATCC 25922 (ATCC 25922, 24 h), over 32 µg/mL; with K. pneumoniae ATCC 13883 (ATCC 13883, 24 h), over 32 µg/mL. Further, the “MIC, single drug” value in the assay with P. aeruginosa ATCC 27853 (ATCC 27853, 24 h) is 2 µg/mL; with P. mirabilis ATCC 43071 it was over 32 µg/mL; with P. putida ATCC 17428 (ATCC 17428, 24 h), 4 µg/mL. In addition, the “fold reduction of the MIC of PMBN” value in assay [6] is listed as 4- to 64 fold. Also, the IC50 in assay [7] was over 32 µg/mL.

In the case of `CNC(C)C1CCC(N)C(OC2C(N)CC(N)C(OC3OCC(C)(O)C(NC)C3O)C2O)O1` (stereo not drawn) [Gentamicin, gentamicin], the MIC with E. coli ATCC 25922 was 0.5 µg/mL; with P. aeruginosa ATCC 27853, 2 µg/mL; in the assay on S. aureus ATCC 29213, 0.5 µg/mL (≈ 1.05 µM). Moreover, the MIC50 in assay [1] amounted to 32 µg/mL; in assay [2], 8 µg/mL; in assay [3], 2 µg/mL; in assay [4] it was 8 µg/mL. The MIC90 in assay [1] was found to be 64 µg/mL; in assay [2], 32 µg/mL; in [3], 2 µg/mL; in assay [4], 8 µg/mL. In addition, the figures for the “MIC range, single drug” value in assay [1], in [3] and in assay [4] were 0.25 to 64 µg/mL, 1 to 64 µg/mL and 8 to 16 µg/mL, respectively.

Values taken from publication PMC6494957 (Frontiers in Microbiology, 2019).
